# Source: ChEMBL document CHEMBL5579824, “Novel Hsp90-Targeting PROTACs: Enhanced synergy with cisplatin in combination therapy of cervical cancer” (Eur J Med Chem, 2024)
# Calls of active or inactive are those of the source. No cut-off for these calls is given here.
# Columns and labels:
# SiHa [1] = experiment: Antitumor activity against human SiHa cells xenografted in BALB/c nude mouse assessed as tumor growth inhibition at 2 mg/kg, ip; format: functional, organism-based
# [2] = target: T1, Protein cereblon/Heat shock protein HSP 90-alpha/Heat shock protein HSP 90-beta (Homo sapiens) (UniProt P07900+P08238+Q96SW2); experiment: Protac activity at CRBN/Hsp90 in human SiHa cells assessed as decrease in HER2 protein expression level at 0.05 uM incubated for 10 hrs by Western blot analysis; format: cell-based
# [3] = target: T1, Protein cereblon/Heat shock protein HSP 90-alpha/Heat shock protein HSP 90-beta (Homo sapiens); experiment: Protac activity at CRBN/Hsp90 in human SiHa cells assessed as induction of Hsp90 degradation at 1 uM incubated for 10 hrs by Western blot analysis; format: cell-based
# [4] = target: T1, Protein cereblon/Heat shock protein HSP 90-alpha/Heat shock protein HSP 90-beta (Homo sapiens); experiment: Protac activity at CRBN/Hsp90 in human SiHa cells assessed as induction of Hsp90 degradation at 1 uM incubated for 8 to 10 hrs by Western blot analysis; format: cell-based; details: time 8-10 hrs
# [5] = target: T1, Protein cereblon/Heat shock protein HSP 90-alpha/Heat shock protein HSP 90-beta (Homo sapiens); experiment: Protac activity at CRBN/Hsp90 in human SiHa cells assessed as induction of Hsp90 degradation at 0.05 uM incubated for 10 hrs by Western blot analysis; format: cell-based
# [6] = target: T1, Protein cereblon/Heat shock protein HSP 90-alpha/Heat shock protein HSP 90-beta (Homo sapiens); experiment: Protac activity at CRBN/Hsp90 in human SiHa cells assessed as induction of Hsp90 degradation (causing hook effect) at > 0.075 uM incubated for 10 hrs by Western blot analysis; format: cell-based
# [7] = target: T1, Protein cereblon/Heat shock protein HSP 90-alpha/Heat shock protein HSP 90-beta (Homo sapiens); experiment: Protac activity at CRBN/Hsp90 in human Ca-Ski cells assessed as induction of Hsp90 degradation (causing hook effect) at > 0.075 uM incubated for 10 hrs by Western blot analysis; format: cell-based
# [8] = target: T1, Protein cereblon/Heat shock protein HSP 90-alpha/Heat shock protein HSP 90-beta (Homo sapiens); experiment: Protac activity at CRBN/Hsp90 in human SiHa cells assessed as induction of Hsp90 degradation at 0.05 uM incubated for 2 hrs in presence of lenalidomide by Western blot analysis; format: cell-based
# SiHa [9] = experiment: Antiproliferative activity against human SiHa cells assessed as inhibition of clone formation ability incubated for 14 days by crystal violet staining based microscopic analysis; format: functional, cell-based; details: dose 0.01-1 µM, time 14.0 day
# SiHa [10] = experiment: Induction of apoptosis in human SiHa cells assessed as necrotic cells at 2.5 uM incubated after 48 hrs by annexin V-FITC/PI staining based flow cytometry (reference value: 0.08 %); format: functional
# SiHa [11] = experiment: Induction of apoptosis in human SiHa cells assessed as late apoptotic cells at 1 uM incubated after 48 hrs by annexin V-FITC/PI staining based flow cytometry (reference value: 6.93 %); format: functional
# SiHa [12] = experiment: Induction of apoptosis in human SiHa cells assessed as viable cells at 0.05 uM incubated after 48 hrs by annexin V-FITC/PI staining based flow cytometry (reference value: 90.4 %); format: functional; details: read-out: Activity
# SiHa [13] = experiment: Induction of apoptosis in human SiHa cells assessed as early apoptotic cells at 0.05 uM incubated after 48 hrs by annexin V-FITC/PI staining based flow cytometry (reference value: 2.05 %); format: functional
# SiHa [14] = experiment: Induction of cell cycle arrest in human SiHa cells assessed as accumulation of cells at G1 pahse at 10 uM incubated after 48 hrs by PI staining based flow cytometry (reference value: 83.90 %); format: functional
# SiHa [15] = experiment: Induction of cell cycle arrest in human SiHa cells assessed as accumulation of cells at G2/M pahse at 2.5 uM incubated after 48 hrs by PI staining based flow cytometry (reference value: 7.37 %); format: functional
# SiHa [16] = experiment: Induction of cell cycle arrest in human SiHa cells assessed as accumulation of cells at G1 pahse at 1 uM incubated after 48 hrs by PI staining based flow cytometry (reference value: 83.90 %); format: functional
# SiHa [17] = experiment: Induction of cell cycle arrest in human SiHa cells assessed as accumulation of cells at G1 pahse at 0.05 uM incubated after 48 hrs by PI staining based flow cytometry (reference value: 83.90 %); format: functional
# SiHa [18] = experiment: Induction of cell cycle arrest in human SiHa cells assessed as accumulation of cells at G2/M pahse at 0.05 uM incubated after 48 hrs by PI staining based flow cytometry (reference value: 7.37 %); format: functional
# SiHa [19] = experiment: Synergistic antiproliferative activity against human SiHa cells assessed as combination index at 0.05 uM incubated for 72 hrs in presence of 0.1 uM cisplatin by CCK-8 assay; format: functional
# SiHa [20] = experiment: Synergistic antiproliferative activity against human SiHa cells assessed as combination index at 0.05 uM incubated for 72 hrs in presence of 0.03 uM cisplatin by CCK-8 assay; format: functional
# SiHa [21] = experiment: Synergistic antiproliferative activity against human SiHa cells assessed as combination index at 0.1 uM incubated for 72 hrs in presence of 31.62 uM cisplatin by CCK-8 assay; format: functional
# SiHa [22] = experiment: Synergistic antiproliferative activity against human SiHa cells assessed as combination index at 0.1 uM incubated for 72 hrs in presence of 3.16 uM cisplatin by CCK-8 assay; format: functional
# SiHa [23] = experiment: Synergistic antiproliferative activity against human SiHa cells assessed as combination index at 0.1 uM incubated for 72 hrs in presence of 0.1 uM cisplatin by CCK-8 assay; format: functional
# SiHa [24] = experiment: Synergistic antiproliferative activity against human SiHa cells assessed as combination index at 0.1 uM incubated for 72 hrs in presence of 0.01 uM cisplatin by CCK-8 assay; format: functional
# SiHa [25] = experiment: Synergistic antiproliferative activity against human SiHa cells assessed as combination index at 0.5 uM incubated for 72 hrs in presence of 31.62 uM cisplatin by CCK-8 assay; format: functional
# SiHa [26] = experiment: Synergistic antiproliferative activity against human SiHa cells assessed as combination index at 0.5 uM incubated for 72 hrs in presence of 1 uM cisplatin by CCK-8 assay; format: functional
# SiHa [27] = experiment: Synergistic antiproliferative activity against human SiHa cells assessed as combination index at 0.5 uM incubated for 72 hrs in presence of 0.32 uM cisplatin by CCK-8 assay; format: functional
# SiHa [28] = experiment: Synergistic antiproliferative activity against human SiHa cells assessed as combination index at 0.75 uM incubated for 72 hrs in presence of 31.62 uM cisplatin by CCK-8 assay; format: functional
# SiHa [29] = experiment: Synergistic antiproliferative activity against human SiHa cells assessed as combination index at 0.75 uM incubated for 72 hrs in presence of 10 uM cisplatin by CCK-8 assay; format: functional
# SiHa [30] = experiment: Synergistic antiproliferative activity against human SiHa cells assessed as combination index at 5 uM incubated for 72 hrs in presence of 10 uM cisplatin by CCK-8 assay; format: functional
# SiHa [31] = experiment: Synergistic antiproliferative activity against human SiHa cells assessed as combination index at 5 uM incubated for 72 hrs in presence of 1 uM cisplatin by CCK-8 assay; format: functional
# SiHa [32] = experiment: Synergistic antiproliferative activity against human SiHa cells assessed as combination index at 10 uM incubated for 72 hrs in presence of 3.16 uM cisplatin by CCK-8 assay; format: functional
# SiHa [33] = experiment: Synergistic antiproliferative activity against human SiHa cells assessed as combination index at 10 uM incubated for 72 hrs in presence of 0.32 uM cisplatin by CCK-8 assay; format: functional
# SiHa [34] = experiment: Synergistic antitumor activity against human SiHa cells xenografted in BALB/c nude mouse assessed as tumor growth inhibition at 2 mg/kg, ip co-treated with cisplatin separately for every two days; format: functional, organism-based
smiles,measurement,setting,value
CC1(C)CC(=O)c2c(C(F)(F)F)nn(-c3ccc(C(N)=O)c(N[C@H]4CC[C@H](OC(=O)CNC(=O)CCCCCCCNc5cccc6c5CN(C5CCC(=O)NC5=O)C6=O)CC4)c3)c2C1 (some centres undefined),TGI,SiHa [1],Active
same,Activity,[2],Active
same,Activity,[3],Active
same,Activity,[4],Active
same,Activity,[5],Active
same,Activity,[6],inactive
same,Activity,[7],inactive
same,Activity,[8],inactive
same,inhibition,SiHa [9],Dose-Dependent Effect
same,Activity,SiHa [10],0.68%
same,Activity,SiHa [11],24.2%
same,viability at 0.05 µM,SiHa [12],90.1%
same,Activity,SiHa [13],2.44%
same,Activity,SiHa [14],62.26%
same,Activity,SiHa [15],25.47%
same,Activity,SiHa [16],59.32%
same,Activity,SiHa [17],78.92%
same,Activity,SiHa [18],9.88%
same,CI,SiHa [19],0.36
same,CI,SiHa [20],0.3
same,CI,SiHa [21],0.24
same,CI,SiHa [22],1.04
same,CI,SiHa [23],0.49
same,CI,SiHa [24],3.04
same,CI,SiHa [25],0.26
same,CI,SiHa [26],0.13
same,CI,SiHa [27],0.12
same,CI,SiHa [28],0.32
same,CI,SiHa [29],0.21
same,CI,SiHa [30],0.51
same,CI,SiHa [31],0.84
same,CI,SiHa [32],1.45
same,CI,SiHa [33],1.89
same,TGI,SiHa [34],Active
